The text below walks through data of US20250319032A1, “PHARMACEUTICAL COMPOSITIONS OF RIBOCICLIB” (Novartis AG, priority 2024, published 2025).

Data set [1] can be described thus: Range-finding oral toxicity study of DMP433 (Labcorp Study Number 8526660). The format is in vivo, mouse. The note with it: both sexes, Muta™ Mouse, mouse, in vivo; oral, daily; read-out: maximum tolerated dose level (MTD). On the procedure: (§1) In a previously conducted range-finding study (Labcorp Study Number 8526660) DMP433 was dosed orally in groups of 6 males and 6 females at 500, 100 or 50 mg/kg/day daily for up to 14 days. […] Where clinical signs were seen, animals had recovered prior to dosing the following day. A single Day 1 (Subgroup 1) female satellite animal was removed from the study due to the severity of the clinical observations. […] Where clinical signs were seen, animals had recovered prior to dosing the following day. […] Therefore, dosing in males and females will be conducted.
(§2) Based on the toxicity and bioanalytical data generated under Labcorp Study Number 8526660, the maximum tolerated dose level (MTD) of 100 mg/kg/day* will be used as the high dose level. Two further doses of 50 and 25 mg/kg/day, will also be tested in males (OECD, 2022). As there is a crossover in exposure between males and females, vehicle controls and the MTD of 100 mg/kg/day only will be evaluated in females. • group 4 male animals given 80 mg/kg/day from Day 4 of dosing onwards due to mortality/morbidity.

For another data set, the system named is Muta™ Mice. The data set is described as above. Type of data set: in vivo, mouse. As to the method: as §1, §2
Data set [2] has as its system lacZ transgene within the bone marrow, liver, kidney, and duodenum from treated Muta™ Mice. In words: Transgenic gene mutation assay in Muta™ Mice (lacZ). The format is in vivo, Muta™ Mouse CD2-lacZ80/HazfBR. The note with it: oral gavage, 28 consecutive days, sampling day 31. An excerpt: A study is on-going, with the objective of evaluating the potential of DMP433 to induce gene mutations in the lacZ transgene within the bone marrow, liver, kidney, and duodenum from treated Muta™ Mice. The bone marrow and liver will be examined as these tissues are expected to be highly exposed to DMP433 upon oral gavage dosing and/or representative of organs with fast and slow dividing cells respectively. The duodenum will be assessed as a site of contact tissue following oral gavage dosing. The kidney will also be examined as a standard target organ for tumours for nitrosamines.
The animals used will be transgenic mouse of the strain Muta™ Mouse CD2-lacZ80/HazfBR (supplied by Charles River, UK). The animals will have an age range of approximately 8 to 12 weeks on the first day of dosing, and a weight range of approximately 18 to 35 g. […]
Based on the toxicity and bioanalytical data generated under Labcorp Study Number 8526660, the maximum tolerated dose level (MTD) of 100 mg/kg/day* will be used as the high dose level. […] As there is a crossover in exposure between males and females, vehicle controls and the MTD of 100 mg/kg/day only will be evaluated in females. • group 4 male animals given 80 mg/kg/day from Day 4 of dosing onwards due to mortality/morbidity. […]

Data set [3] in a line: Bioanalysis and toxicokinetic evaluation of DMP433 in mouse plasma and tissues. Type of data set: in vivo. As to conditions: 100 mg/kg/day, Day 14. On the procedure: as §1
The blood samples will be processed. Determination of DMP433 in mouse plasma containing K2EDTA as an anticoagulant will be conducted by Labcorp Bioanalytical in accordance with Labcorp Policies, and all procedures will be conducted following method DMP4MPP validated under Labcorp study number 8527178.
Toxicokinetic parameters will be estimated using Phoenix® WinNonlin® version 8.1 or higher (Certara USA, Inc., Princeton, New Jersey). A non-compartmental approach consistent with the oral route of administration will be used for parameter estimation. […]
For determination of mean DMP433 concentrations, concentration values that are below the limit of quantitation will be treated as zero. […]
Bioanalytical data will be used as received for the toxicokinetic analysis. Toxicokinetic parameters will be calculated. […]

Data set [4] can be described thus: Stability of DMP433 dose formulations in vehicle. Type of data set: physicochemical. The note with it: 0.5 and 50 mg/mL; 2 to 8° C. and 15 to 25° C., protected from light. As to the method: The vehicle control is 2.2 eq HCl 1.ON (˜40%)+28% as powder sulfobutylether-β-cyclodextrin (pH 2.0+0.5), with storage conditions in dispensary of 2 to 8° C. protected from light.
The test item formulation will be prepared daily, unless stability data supports less frequent preparation. The stability data will be generated under Labcorp Study Number 8528626. DMP433 formulations in vehicle at concentrations of 0.5 and 50 mg/mL have been confirmed as stable for up to 8 days at 2 to 8° C. and 15 to 25° C., both protected from light. The storage conditions in central dispensary will be 15 to 25° C. protected from light.
The formulation will be analysed (HPLC/UV analysis, Lapcorp method 8528626-01F, version in force on 22nd February 2024) to confirm that it achieves concentration and homogeneity. Samples (as shown in the following tables, where n/a means not applicable) will be taken from the main experiment during week 1 and week 4 and analysed accordingly.

The term MTD denotes the largest dose that counted as tolerated. For `CN(C)C(=O)c1cc2cnc(Nc3ccc(N4CCN(N=O)CC4)cn3)nc2n1C1CCCC1` [DMP433, 7-cyclopentyl-N,N-dimethyl-2-((5-(4-nitrosopiperazin-1-yl)pyridin-2-yl)amino)-7H-pyrrolo[2,3-d]pyrimidine-6-carboxamide], the maximal tolerated dose (MTD) in data set [1] was 100 mg/kg/day. For the same compound, the “bodyweight, Range-Finder 3” value in the data set with Muta™ Mice (50 mg/kg/day oral, 14 days) was “all animals except one (male M5209) had gained bodyweight”. Besides, the “clinical signs, Range-Finder 3” value in the data set with Muta™ Mice (50 mg/kg/day oral, up to 14 days, Subgroup 2 animals) is “squinting, mild decreased activity and piloerection”. Further, in the data set with Muta™ Mice (100 mg/kg/day oral, 14 days), the “bodyweight, Range-Finder 2” value was “all animals gained bodyweight during the 14-day dosing period”. The “clinical signs, Range-Finder 2” value with Muta™ Mice (100 mg/kg/day oral, up to 14 days, Subgroup 2 animals) is “squinting, partially closed eyes, fast respiration, mild hunched posture and piloerection”. Further, in the data set on Muta™ Mice (500 mg/kg/day oral, 6 males and 6 females), the “outcome of Range-Finder 1” value was “terminated on day 1 due to animal mortality/morbidity and convulsions”. In data set [2], the “result of the gene mutation assay (capable of inducing mutation)” value is reported as “positive”. Further, in data set [3], the “sex difference in bioanalytical data” value was “approximately 2 fold”. Besides, in data set [4], the “time for which DMP433 formulations in vehicle are stable” value is “up to 8 days”.
